Here are results for one molecule from EP1360961A1, “Use of antimicrobial peptides for potentiating the activity of antimicrobial agents” (AM-Pharma B.V., priority 2002, dated 2003).

SMILES strings stand for the structures.

Assay [1] relates to fluconazole-resistant C. albicans. Nature of the assay: In vitro assay for candidacidal activity of hLF-derived peptides and/or fluconazole (co-incubation, CFU count). The format is cell-based. Conditions: 1×10^6 CFU/ml, 2 h at 37°C; noncandidacidal peptide concentrations; fluconazole 100-200 µg/ml; Fig. 1.
Method: • Figure 1 - Candidacidal activity of combinations of noncandidacidal concentrations of hLF(1-11), an N-terminal peptide of human lactoferrin and 200 µg/ml fluconazole (closed bars), 150 µg/ml fluconazole (black dotted bars), 100 µg/ml fluconazole (white dotted bars) or without this triazole (open bars). […] In short, 1×10^6 CFU fluconazole-resistant C. albicans/ml were incubated with combinations of hLF(1-11) and fluconazole for 2 h at 37°C and then the number of surviving Candida was determined microbiologically. […] In short, 1×10^6 CFU Candida/ml were preincubated for 5 min at 37°C with (8 µM) hLF(1-11) or (200 µg/ml) fluconazole, washed and then incubated for 2 h at 37°C with (200 µg/ml) fluconazole or (8 µM) hLF(1-11), respectively. As controls, Candida cells were incubated for 2 h at 37°C with (8 µM) hLF(1-11), (200 µg/ml) fluconazole, the combination of (8 µM) hLF(1-11) and (200 µg/ml) fluconazole or no agent. Results are means plus SD of at least three independent experiments.
Assay for candidacidal activity of hLF-derived peptides and fluconazole. […] After a 2 h incubation at 37°C with hLF peptides and/or fluconazole the number of viable blastoconidia was determined by plating serial dilutions of each sample on Sabouraud agar. Results are expressed as colony forming units (CFU) per ml.
Assay [2] concerns Fluconazole-resistant C. albicans strain Y01-19. Nature of the assay: E-test for fluconazole resistance. The format is cell-based. Conditions: Candida albicans. How it is done:
Fluconazole. Fluconazole (Pfizer Inc. New York, NY) was dissolved at a concentration of 1 mg/ml of dimethylsulfoxide (Fluka Chemie GmbH, Sigma-Aldrich Chemie BV, Zwijndrecht, The Netherlands) and stored at -20°C until use. From this stock solution appropriate concentrations were prepared in 10 mM of sodium phosphate buffer (pH 7.4), further referred to as NaPB. Source of C. albicans strain. Fluconazole-resistant C. albicans strain Y01-19 was purchased from Pfizer (Groton, Conn.). […] Fluconazole resistance (M.I.C.>256 µg/ml) was evaluated using the E-test (Oxoid Unipath Ltd., Basingstoke, UK). Yeasts were cultured overnight in Sabouraud broth (Oxoid) at 37°C and sub-cultured for 2,5 h on a rotary wheel at 37°C.

As usually defined, the MIC is the lowest concentration that inhibits growth of the organism. The low end stands for inhibition by little substance, the high end for a need for much substance.

Consider `OC(Cn1cncn1)(Cn1cncn1)c1ccc(F)cc1F` [Fluconazole], for which the candidacidal activity result in assay [1] is on record as “without effect”. This molecule also showed an MIC in assay [2] of more than 256 mg/L.
